Source: patent publication US20100120798A1, “SUBSTITUTED PIPERIDINES CONTAINING A HETEROARYLAMIDE OR HETEROARYLPHENYL MOIETY” (ASTEX THERAPEUTICS LIMITED, priority 2006, published 2010)

Experiment: In vitro MDA-MB-468 human breast adenocarcinoma GSK-3 phosphorylation assay
Type: cell-based
Details: mean IC50, MDA-MB-468 cells, 2 hours with compound, phospho-GSK-3β
From the text: This assay determines the ability of test compounds to inhibit phosphorylation of Serine-9 residue in Glycogen Synthase Kinase-3beta (GSK-3β) as a surrogate marker of cellular PKB (Akt) activity, as assessed using Acumen Explorer Fluorescent Plate-Reader technology. A MDA-MB-468 human breast adenocarcinoma cell line (LGC Promochem, Teddington, Middlesex, UK, Catalogue No. HTB-132) was routinely maintained in Dulbecco's modified Eagle's growth medium (DMEM; Invitrogen Limited, Paisley, UK Catalogue No. 11966-025) containing 10% heat-inactivated foetal calf serum (FCS; Sigma, Poole, Dorset, UK, Catalogue No. F0392) and 1% L-glutamine (Gibco, Catalogue No. 25030-024) at 37° C. with 5% CO2 up to a confluency of 70-90%.
For the phosphorylation assay, the cells were detached from the culture flask using Trypsin-EDTA (Invitrogen Limited, Catalogue No. 25300-062) and seeded into the wells of a black transparent-bottom Corning Costar Polystyrene 96 well plate (Fisher Scientific UK, Loughborough, Leicestershire, UK; Catalogue No. 3904 and DPS-130-020K) at a density of 5000 cells per well in 100 μl of complete growth media. The cells were incubated overnight at 37° C. with 5% CO2 to allow them to adhere.
On day 2, the cells were treated with test compounds and incubated for 2 hours at 37° C. with 5% CO2. Test compounds were prepared as 10 mM stock solutions in DMSO and dosed directly to required concentration into test wells using non-contact (acoustic dispensing of multiple 2.5 nl droplets directly into assay wells) ECHO dosing technology (Labcyte Inc. Sunnyvale, Calif., USA). Each plate contained control wells without test compound.
20 μl of fixing buffer (Phosphate Buffered Saline (PBS) containing 10% formaldehyde; Sigma; Catalogue No. F1635) was then added to each well to give a final well concentration 1.6%. Plates were then incubated for 30 minutes at room temperature prior to the fixative being removed. Each well was washed once with 250 μl of PBS and then 50 μl PBS added to each well. PBS was then aspirated and cells permeabilised and blocked by incubating each well with 50 μl of permeabilisation/blocking buffer (PBS containing 0.5% Tween 20 (Sigma; Catalogue No. P5927) and 5% Marvel Milk Powder (Andrews Pharmacy Ltd, Macclesfield, Cheshire, UK; Catalogue No. APC100199)) for 1 hour at room temperature prior to staining.
Following removal of Perm/Block buffer, 50 μl of primary anti-phospho-GSK-3β antibody (Cell Signalling Technology (New England Biolabs (Uk) Ltd.), Hitchin, Hertfordshire, UK; Catalogue No. 9336 diluted 1:400 in Blocking buffer (PBS containing 5% Marvel and 0.05% Tween/Polysorbate 20) was added to each well and incubated overnight at 4° C.
Each well was washed three times in 250 μl of wash buffer (PBS containing 0.05% polysorbate 20), and cells incubated for 1 hour at room temperature with 50 μl of secondary fluorescently-labelled anti-rabbit Alexa Fluor 488 antibody (Molecular Probes, Invitrogen Limited, Catalogue No. A11008) diluted 1:750 in blocking buffer. Plates were washed three times in 250 μl of wash buffer and stored containing 50 μl of PBS at 4° C. until required.
Plates were analysed using an Acumen Explorer Plate-reader to quantify level of fluorescent signal that represents quantity of phosphorylated-GSK-3β.
IC50 calculation—IC50 is the concentration of compound required to give 50% effect over the range of activity affected by the compound, between maximum (no compound) and minimum (excess level of compound) response control data. IC50 values were determined by fitting background corrected, dose response assay data to a 4 parameter logistic curve fit equation model with the minimum response set to zero. This was done using an in-house developed algorithm within the Origin graphing software package (OriginLab Corporation, Northampton, Mass., USA). […]

SMILES | IC50 [nM]
NC1(C(=O)NCc2ccncc2)CCN(c2ncnc3[nH]ccc23)CC1 [Example 43, 4-Amino-N-(pyridin-4-ylmethyl)-1-(7H-pyrrolo[2,3-d]pyrimidin-4-yl)piperidine-4-carboxamide] | > 19000
NC1(C(=O)NCc2cc(-c3ccc(Cl)cc3)no2)CCN(c2ncnc3[nH]ccc23)CC1 [Example 44, 4-amino-N-[[3-(4-chlorophenyl)-1,2-oxazol-5-yl]methyl]-1-(7H-pyrrolo[2,3-d]pyrimidin-4-yl)piperidine-4-carboxamide] | 19000
Cn1cc(CNC(=O)C2(N)CCN(c3ncnc4[nH]ccc34)CC2)cn1 [Example 45, 4-amino-N-[(1-methylpyrazol-4-yl)methyl]-1-(7H-pyrrolo[2,3-d]pyrimidin-4-yl)piperidine-4-carboxamide] | > 19000
NC1(C(=O)NCc2cnc(-c3ccccc3)s2)CCN(c2ncnc3[nH]ccc23)CC1 [Example 46, 4-Amino-1-(7H-pyrrolo[2,3-d]pyrimidin-4-yl)-piperidine-4-carboxylic acid (2-phenyl-thiazol-5-ylmethyl)-amide] | 14000
Cc1ccsc1CNC(=O)C1(N)CCN(c2ncnc3[nH]ccc23)CC1 [Example 47, 4-Amino-1-(7H-pyrrolo[2,3-d]pyrimidin-4-yl)-piperidine-4-carboxylic acid (3-methyl-thiophen-2-ylmethyl)-amide] | 3900
NC1(C(=O)NCc2cc(Br)no2)CCN(c2ncnc3[nH]ccc23)CC1 [Example 48, 4-Amino-1-(7H-pyrrolo[2,3-d]pyrimidin-4-yl)-piperidine-4-carboxylic acid (3-bromo-isoxazol-5-ylmethyl)-amide] | 380
Cc1cc(CNC(=O)C2(N)CCN(c3ncnc4[nH]ccc34)CC2)on1 [Example 49, 4-Amino-1-(7H-pyrrolo[2,3-d]pyrimidin-4-yl)-piperidine-4-carboxylic acid (3-methyl-isoxazol-5-ylmethyl)-amide] | 4200
NC1(C(=O)NCc2cc3ccccc3[nH]2)CCN(c2ncnc3[nH]ccc23)CC1 [Example 50, 4-Amino-1-(7H-pyrrolo[2,3-d]pyrimidin-4-yl)-piperidine-4-carboxylic acid (1H-indol-2-ylmethyl)-amide] | 700
NC1(C(=O)Nc2cccc(-c3nc4ccccc4o3)c2)CCN(c2ncnc3[nH]ccc23)CC1 [Example 52, 4-Amino-1-(7H-pyrrolo[2,3-d]pyrimidin-4-yl)-piperidine-4-carboxylic acid (3-benzooxazol-2-yl-phenyl)-amide] | 5100
Cc1cnc(NC(=O)C2(CN)CCN(c3ncnc4[nH]ccc34)CC2)s1 [Example 59, 4-(aminomethyl)-N-(5-methylthiazol-2-yl)-1-(7H-pyrrolo[2,3-d]pyrimidin-4-yl)piperidine-4-carboxamide] | 200
NCC1(C(=O)Nc2ccc(F)cn2)CCN(c2ncnc3[nH]ccc23)CC1 [Example 60, 4-(aminomethyl)-N-(5-fluoropyridin-2-yl)-1-(7H-pyrrolo[2,3-d]pyrimidin-4-yl)piperidine-4-carboxamide] | 330
NCC1(C(=O)Nc2ccc(C(F)(F)F)cn2)CCN(c2ncnc3[nH]ccc23)CC1 [Example 61, 4-(Aminomethyl)-1-(7H-pyrrolo[2,3-d]pyrimidin-4-yl)-N-(5-(trifluoromethyl)pyridin-2-yl)piperidine-4-carboxamide] | 47
NCC1(C(=O)Nc2nc3ccccc3s2)CCN(c2ncnc3[nH]ccc23)CC1 [Example 63, 4-(Aminomethyl)-N-(benzo[d]thiazol-2-yl)-1-(7H-pyrrolo[2,3-d]pyrimidin-4-yl)piperidine-4-carboxamide] | 170
NCC1(c2cc(F)cc(-c3cncc(F)c3)c2)CCN(c2ncnc3[nH]ccc23)CC1 [Example 71, (4-(3-Fluoro-5-(5-fluoropyridin-3-yl)phenyl)-1-(7H-pyrrolo[2,3-d]pyrimidin-4-yl)piperidin-4-yl)methanamine] | 17
Cc1cnc(NC(=O)C2(CN)CCN(c3ncnc4[nH]cnc34)CC2)s1 [Example 72, 4-(Aminomethyl)-N-(5-methylthiazol-2-yl)-1-(9H-purin-6-yl)piperidine-4-carboxamide] | 310
NCC1(C(=O)Nc2ccc(Cl)cn2)CCN(c2ncnc3[nH]ccc23)CC1 [Example 81, 4-(Aminomethyl)-N-(5-chloropyridin-2-yl)-1-(7H-pyrrolo[2,3-d]pyrimidin-4-yl)piperidine-4-carboxamide] | 73
NCC1(C(=O)Nc2ccc(C(F)(F)F)nc2)CCN(c2ncnc3[nH]ccc23)CC1 [Example 82, 4-(Aminomethyl)-1-(7H-pyrrolo[2,3-d]pyrimidin-4-yl)-N-(6-(trifluoromethyl)pyridin-3-yl)piperidine-4-carboxamide] | 54

More lines, now with the values ahead:

IC50 [nM] | SMILES
< 17 | Cn1cc(-c2cccc(C3(CN)CCN(c4ncnc5[nH]ccc45)CC3)c2)cn1 [Example 51, (4-(3-(1-Methyl-1H-pyrazol-4-yl)phenyl)-1-(7H-pyrrolo[2,3-d]pyrimidin-4-yl)piperidin-4-yl)methanamine]
59 | Cn1cc(-c2cc(F)cc(C3(CN)CCN(c4ncnc5[nH]ccc45)CC3)c2)cn1 [Example 70, (4-(3-fluoro-5-(1-methyl-1H-pyrazol-4-yl)phenyl)-1-(7H-pyrrolo[2,3-d]pyrimidin-4-yl)piperidin-4-yl)methanamine]
150 | NCC1(c2cccc(-c3cn[nH]c3)c2)CCN(c2ncnc3[nH]ccc23)CC1 [Example 73, [4-[3-(1H-Pyrazol-4-yl)phenyl]-1-(7H-pyrrolo[3,2-e]pyrimidin-4-yl)piperidin-4-yl]methanamine]
55 | Cc1ccncc1-c1cccc(C2(CN)CCN(c3ncnc4[nH]ccc34)CC2)c1 [Example 74, [4-[3-(4-methylpyridin-3-yl)phenyl]-1-(7H-pyrrolo[3,2-e]pyrimidin-4-yl)piperidin-4-yl]methanamine]
65 | NCC1(c2cccc(-c3ccncc3)c2)CCN(c2ncnc3[nH]ccc23)CC1 [Example 75, [4-(3-pyridin-4-ylphenyl)-1-(7H-pyrrolo[3,2-e]pyrimidin-4-yl)piperidin-4-yl]methanamine]
33 | NCC1(c2cccc(-c3cccnc3)c2)CCN(c2ncnc3[nH]ccc23)CC1 [Example 76, [4-(3-pyridin-3-ylphenyl)-1-(7H-pyrrolo[3,2-e]pyrimidin-4-yl)piperidin-4-yl]methanamine]
35 | NCC1(c2cccc(-c3cncnc3)c2)CCN(c2ncnc3[nH]ccc23)CC1 [Example 77, [4-(3-pyrimidin-5-ylphenyl)-1-(7H-pyrrolo[3,2-e]pyrimidin-4-yl)piperidin-4-yl]methanamine]
50 | NCC1(c2cccc(-c3ccco3)c2)CCN(c2ncnc3[nH]ccc23)CC1 [Example 78, [4-[3-(furan-2-yl)phenyl]-1-(7H-pyrrolo[3,2-e]pyrimindin-4-yl)piperidin-4-yl]methanamine]
48 | NCC1(c2cccc(-c3ccoc3)c2)CCN(c2ncnc3[nH]ccc23)CC1 [Example 79, [4-(3-furan-3-ylphenyl)-1-(7H-pyrrolo[3,2-e]pyrimidin-4-yl)piperidin-4-yl]methanamine]
100 | NCC1(c2cccc(-c3cnoc3)c2)CCN(c2ncnc3[nH]ccc23)CC1 [Example 80, [4-[3-(1,2-oxazol-4-yl)phenyl]-1-(7H-pyrrolo[3,2-e]pyrimidin-4-yl)piperidin-4-yl]methanamine]
